Literature values in patent publication EP4140474A1, “NUT[…] THE REDUCTION OF OSTE[…] AND INFLAMMATION” (Theracell Advanced Biotechnology S.A., priority 2021, dated 2023).

Experiments:
MMP13 = MMP13 (Homo sapiens, UniProt P45452); details: selective inhibitor of MMP13

SMILES | IC50 (MMP13) | IC50 (lipoxygenase)
O=C(/C=C/c1ccc(O)c(O)c1)O[C@H](Cc1ccc(O)c(O)c1)C(=O)O [rosmarinic, rosmarinic acid] | 2900 nM | –
Oc1ccc(C=Cc2cc(O)cc(O)c2)cc1 [resveratrol] | – | 2700 nM
